From patent US20240239840A1, “method for the treatment of pain and a medicinal product for administration during pain” (PVP LABS PTE.LTD., priority 2023, published 2024)
Square brackets hold non-standard residues; d marks the D form. Peptide text beside a SMILES is read from it.

Tests used:
[1] = test system: cancer patients with severe cancer pain; experiment: phase II clinical trial, efficacy in cancer patients experiencing pain; assay type: in vivo, human
Description: (§1) Pain intensity was evaluated on a numeric rating scale (NRS) from 0 to 10. […] The patients' physical activity score on the Eastern Cooperative Oncology Group (ECOG) performance status scale was 0 to 3, i.e. they were active and were up and about for over 50% of waking hours (grade 2 on the ECOG scale) or were capable of only limited self-care and confined to bed or chair more than 50% of waking hours (grade 3 on the ECOG scale).
(§2) The study was carried out in two stages. The total duration of the trial for each patient was 20 days or less. […] The number of doses depended on pain intensity as evaluated on the NRS scale for each individual patient.
The primary efficacy endpoint was the rate of achieving a sufficient analgesic effect throughout the day.

[2] = phase III clinical trial, safety in patients with cancer pain
[3] = phase II clinical trial, safety in cancer patients experiencing pain
Description: as §1, §2
Comments: 1. […] 2. SAE=serious adverse event.

[4] = test system: patients with cancer pain; experiment: phase III clinical trial, efficacy in patients with cancer pain; assay type: in vivo, human
Description: Primary efficacy evaluation was performed during the following visits: Visit 1 (day 1 of tetrapeptide treatment), Visit 2 (day 28±2 of tetrapeptide treatment), Visit 3 (day 56±2 of tetrapeptide treatment) and Visit 4 (day 86±2 of tetrapeptide treatment).
Analgesic treatment response maintenance rate by day 28.
Treatment response was considered maintained if all of the following conditions were met: • 1. […] Daily average pain intensity at the end of the 28-day treatment period remains at <50% of the intensity at the start of titration.

[5] = test system: patients with early postoperative pain; experiment: clinical trial of pain treatment in the early postoperative period, efficacy; assay type: in vivo, human
Description: (§3) Additional clinical trials focused of the treatment of pain in the early postoperative period after a variety of surgical interventions, including urological, gynaecological and other surgeries.
(§4) If NRS pain intensity score on day two was <4, only paracetamol was administered by IV injection as necessary, and the maximum daily dose was […]. […] Pain was usually brought under control within 1-2 days in the early postoperative period.

[6] = clinical trial of pain treatment in the early postoperative period, safety; assay type: in vivo, human; conditions: groups treated with Promedol
Description: as §3, §4

[7] = molecular target: μ1-opioid receptor (Homo sapiens, UniProt P35372); experiment: opioid receptor specificity of the tetrapeptide; assay type: binding
Excerpt: (§5) Two subtypes of μ receptors are recognized: activation of μ1 receptors causes pronounced analgesia, while activation of μ2-receptors leads to respiratory depression, cardiovascular system disturbances such as bradycardia, and suppression of intestinal motility. Therefore, high specificity of the tetrapeptide in question to μ1-opioid receptors ensures the absence of side effects that are typical of most opioid narcotic medications. This tetrapeptide interacts with peripheral and central receptors, although it mostly acts at the spinal level. After the tetrapeptide binds to μ1-receptors, G-protein complex is released, which inhibits the release of neurotransmitters by the cell by reducing the amount of cAMP produced, closing calcium channels and opening potassium channels, which, among other consequences, inhibits the transmission of pain signals in nociceptors. The tetrapeptide activates the antinociceptive system, thereby disrupting interneuronal transmission of pain signals at different levels of the CNS, and changes the intensity of pain perception by acting on the higher brain centres.

[8] = molecular target: δ-receptors (Homo sapiens, UniProt P41143); experiment: opioid receptor specificity of the tetrapeptide; assay type: binding
Excerpt: as §5

[9] = test system: other opioid receptors; experiment: opioid receptor specificity of the tetrapeptide; assay type: binding
Excerpt: as §5

[10] = investigator-evaluated, Visit 2
[11] = Promedol 20 mg three times daily
[12] = Promedol 20 mg three times daily on day 1

Chain of μ1-opioid receptor (P35372 whole entry): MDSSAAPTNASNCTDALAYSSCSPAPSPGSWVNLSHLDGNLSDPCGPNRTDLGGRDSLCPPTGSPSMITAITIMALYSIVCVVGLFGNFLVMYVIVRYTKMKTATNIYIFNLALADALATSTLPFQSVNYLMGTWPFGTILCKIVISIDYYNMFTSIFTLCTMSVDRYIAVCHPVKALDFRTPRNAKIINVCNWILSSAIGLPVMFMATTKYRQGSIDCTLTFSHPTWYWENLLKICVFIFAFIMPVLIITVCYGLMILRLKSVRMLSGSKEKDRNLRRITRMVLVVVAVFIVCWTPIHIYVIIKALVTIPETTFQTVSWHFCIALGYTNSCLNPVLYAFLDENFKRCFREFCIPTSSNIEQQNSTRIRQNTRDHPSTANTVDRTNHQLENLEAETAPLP
Chain of δ-receptors (P41143 whole entry): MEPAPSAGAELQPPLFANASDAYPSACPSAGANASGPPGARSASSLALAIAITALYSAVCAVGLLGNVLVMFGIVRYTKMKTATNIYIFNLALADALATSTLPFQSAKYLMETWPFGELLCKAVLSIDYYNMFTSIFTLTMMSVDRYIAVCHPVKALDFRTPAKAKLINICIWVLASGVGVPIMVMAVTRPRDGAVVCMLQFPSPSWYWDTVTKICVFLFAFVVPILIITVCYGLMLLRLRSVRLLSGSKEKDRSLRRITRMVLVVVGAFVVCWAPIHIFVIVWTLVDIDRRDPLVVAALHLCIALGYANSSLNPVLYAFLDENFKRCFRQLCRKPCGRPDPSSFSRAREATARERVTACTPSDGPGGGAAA

Structure (SMILES): CN1CC[C@]23c4c5ccc(O)c4O[C@H]2[C@@H](O)C=C[C@H]3[C@H]1C5 [morphine]
- average stable daily dose ensuring adequate pain relief ([1]; baseline, all Taphalgin dose subgroups): 20.31 mg
- average starting dose ([1]; before study, patients of the 2 mg Taphalgin subgroup): 18.33 mg
- within-group trend of daily average NRS pain intensity scores ([1]; stage 2): flat
- daily average NRS pain intensity score ([1]; stage 2, day of dosing 11): 0.12 ± 0.22
- daily average NRS pain intensity score ([1]; stage 2, day of dosing 12): 0.30 ± 0.38
- daily average NRS pain intensity score ([1]; stage 2, day of dosing 13): 0.24 ± 0.35
- daily average NRS pain intensity score ([1]; stage 2, day of dosing 14): 0.24 ± 0.35
- daily average NRS pain intensity score ([1]; stage 2, day of dosing 15): 0.28 ± 0.30
- daily average NRS pain intensity score ([1]; stage 2, day of dosing 16): 0.17 ± 0.21
- daily average NRS pain intensity score ([1]; stage 2, day of dosing 17): 0.17 ± 0.23
- prevalence of patients with AEs ([2]; Period 1): 71.19%
- total number of AEs reported ([2]; Period 1): 119
- AEs mild ([2]; Period 1, % of cases): 65.55%
- AEs moderate ([2]; Period 1, % of cases): 33.61%
- AEs severe ([2]; Period 1, % of cases): 0.84%
- causality between AEs and therapy: certain ([2]; Period 1, % of cases): 13.44%
- causality between AEs and therapy: conditional ([2]; Period 1, % of cases): 0.84%
- causality between AEs and therapy: possible ([2]; Period 1, % of cases): 38.66%
- causality between AEs and therapy: probable ([2]; Period 1, % of cases): 29.41%
- causality between AEs and therapy: unclassifiable ([2]; Period 1, % of cases): 0.84%
- causality between AEs and therapy: unlikely ([2]; Period 1, % of cases): 11.76%
- causality between AEs and therapy: unrelated ([2]; Period 1, % of cases): 5.04%
- number of AEs with causality “certain”, “probable” or “possible” ([2]; both, human, in vivo, oral): 97
- prevalence of patients with reported AEs ([2]; comprehensive within-group analysis (44/120 vs 43/59)): 72.88%
- dyspnoea / difficulty breathing ([3]; human, in vivo): difficulty breathing was observed
- Acute heart failure (SAE), % of the total number of AEs for the group ([3]; stage 2): (3.7) %
- Anaemia, % of the total number of AEs for the group ([3]; stage 2): (3.7) %
- Appetite lost, % of the total number of AEs for the group ([3]; stage 2): (7.4) %
- Asthenia, % of the total number of AEs for the group ([3]; stage 2): (14.8) %
- Constipation, % of the total number of AEs for the group ([3]; stage 2): (14.8) %
- Cough, % of the total number of AEs for the group ([3]; stage 2): (3.7) %
- Dizziness postural, % of the total number of AEs for the group ([3]; stage 2): (0) %
- Dizziness, % of the total number of AEs for the group ([3]; stage 2): (3.7) %
- Dry mouth, % of the total number of AEs for the group ([3]; stage 2): (3.7) %
- Flatulence, % of the total number of AEs for the group ([3]; stage 2): (3.7) %
- Insomnia, % of the total number of AEs for the group ([3]; stage 2): (3.7) %
- Multiple organ dysfunction syndrome (SAE), % of the total number of AEs for the group ([3]; stage 2): (3.7) %
- Nausea, % of the total number of AEs for the group ([3]; stage 2): (3.7) %
- Peripheral oedema, % of the total number of AEs for the group ([3]; stage 2): (3.7) %
- Pulmonary oedema (SAE), % of the total number of AEs for the group ([3]; stage 2): (3.7) %
- Sedation, % of the total number of AEs for the group ([3]; stage 2): (7.4) %
- Shortness of breath, % of the total number of AEs for the group ([3]; stage 2): (3.7) %
- Total, % of the total number of AEs for the group ([3]; stage 2): (100) %
- Vomiting, % of the total number of AEs for the group ([3]; stage 2): (3.7) %
- incidence of AEs ([3]; stage 2, 16 patients per group): 50.0%
- number of patients in whom AEs were reported ([3]; stage 2, 16 patients per group): 8
- number of SAEs reported ([3]; stage 2, in 1 patient): 1
- average SF-36 mental health score ([4]; Visit 0): 31.42±12.16
- average SF-36 physical health score ([4]; Visit 0): 32.22±10.76
- average SF-36 mental health score ([4]; Visit 2): 31.42±12.16
- average SF-36 physical health score ([4]; Visit 2): 49.52±11.73
- non-responders to therapy ([4]; by Visit 2): no non-responders
- proportion of patients who required a dose increase ([4]; by Visit 2): 6.52%
- proportion of patients with at least one episode of breakthrough pain ([4]; by Visit 2): 2.17%
- daily average NRS pain intensity score (Mean±SD) ([4]; by group, at Visit 2): 0.28±0.30
- proportion of patients with a “good response” to therapy [4, 10]: 67.39%
- proportion of patients with a “satisfactory response” to therapy [4, 10]: 0.00%
- proportion of patients with an “excellent response” to therapy [4, 10]: 32.61%

Structure (SMILES): CCC(=O)OC1(c2ccccc2)CC(C)N(C)CC1C (centres unmarked) [Promedol]
- daily average NRS pain intensity score [5, 11]: 2.16±0.66
- mean change in pain intensity [5, 11]: 55.44±33.17%
- proportion of patients with greater than 50% pain relief at 1 hour after the initial dose [5, 11]: 50%
- patients requiring repeat dosing on day 2 who were dosed three times [5, 12]: 16.67%
- patients requiring repeat dosing on day 2 who were dosed twice [5, 12]: 83.33%
- daily average NRS pain intensity score ([5]; day 2, Promedol 20 mg three times daily): 1.41±1.92
- patients with AEs [6]: 35%

Structure (SMILES): N=C(N)NCCC[C@@H](NC(=O)[C@@H](N)Cc1ccc(O)cc1)C(=O)N[C@@H](Cc1ccccc1)C(=O)NCC(N)=O [H-Tyr-D-Arg-Phe-Gly-NH2, Tyrosyl-D-arginyl-phenylalanyl-glycinamide] (H-Y[dR]FG-NH2)
- opioid receptor activity [7]: highly specific μ1-opioid receptor agonist
- interaction with δ-receptors weaker than with μ-opioid receptors [8]: 3 orders of magnitude
- interactions with the other receptors [9]: no interactions with the other receptors have been detected
